# Experimental data reported in patent US11464767B2, “Prodrugs of phenolic TRPV1 agonists in combination with local anesthetics and vasoconstrictors for improved local anesthesia” (Concentric Analgesics, Inc., priority 2016, dated 2022).
# Columns and labels:
# in vivo = assay: in vivo; design: species or system male Sprague-Dawley rats; conditions: rat, sc; for Tmax: Tmax of capsaicin
# Description: This Example compares the pharmacokinetics of capsaicin from either capsaicin or from Compound 1 (with or without co-administered bupivacaine or bupivacaine with epinephrine) administered subcutaneously (SC) to rats. Additionally, this example compares the pharmacokinetics of cyclic urea metabolite (Compound 2) from Compound 1 (with or without co-administered bupivacaine or bupivacaine with epinephrine).
# SC dosing: Four groups of six male Sprague-Dawley rats (vendor was Charles River Laboratories) each were to receive a single subcutaneous dose (4 mL/kg) of one of the following test articles:
# Group 1) 1.00 mg/kg capsaicin in 25% PEG300/sterile water for injection (♦);
# Group 2) 1.62 mg/kg Compound 1.HCl in sterile water for injection (□);
# Group 3) 1.62 mg/kg Compound 1.HCl in 0.25% bupivacaine hydrochloride for injection (Δ);
# Group 4) 1.62 mg/kg Compound 1.HCl in 0.25% bupivacaine hydrochloride plus epinephrine, (1:200,000 for injection) (*).
# The dose of capsaicin and Compound 1 were selected to provide approximately equimolar amounts.
# The injection volume was 4 mL/kg. (Note: The actual dose of capsaicin for Group 1 was 0.74 mg/kg, or 74% of the intended dose of 1 mg/kg. Dose data represents dose correction of Group 1 to equimolar dosages with Compound 1 from groups 2, 3, 4). The actual doses of Compound 1 HCl and bupivacaine for Groups 2, 3, and 4 were within 10% of the intended doses.
# Blood samples (0.3 mL) were collected from the jugular vein into tubes containing K2EDTA as anticoagulant and 0.3 ml of 2% formic acid (resulting in a final concentration of 1% formic acid) as a quenching agent to stop the cyclization of Compound 1, which releases capsaicin and cyclic urea Compound 2. The samples were collected from each rat at 2, 10, and 30 minutes, and 1, 2, 4, 8, and 24 hours post-dose.
# Each blood sample was mixed by inversion and placed on dry ice. They were not processed for plasma. The blood samples were kept frozen at −70° C. until further processing and analysis was performed. All blood samples were collected as scheduled.
# The concentrations of the two main analytes in rat blood mixed 1:1 (v/v) with 2% formic acid were determined simultaneously using a qualified LC-MS/MS assay. The results for both analytes were reported in ng/mL. The calibration range was 1 to 1,000 ng/mL for Compound 1 and capsaicin in the mixed matrix. The calibration range was 5 to 1,000 ng/mL for Compound 2.
# Table 1, FIG. 1, and FIG. 2 provide dose-corrected capsaicin exposure results for rats administered as described above.
# Table 2, FIG. 3, and FIG. 4 provide Compound 2 exposure results for rats administered as described above.
# [1] = Hydrophilicity/water solubility compared with capsaicin; format: physicochemical; conditions: than capsaicin
# [2] = tested on: Brennan Model of Post-Incisional Pain in rat; assay: Brennan Model of Post-Incisional Pain in rat, guarding scores (Example 4); format: in vivo, male Sprague Dawley rats
# Description: This Example compares the pharmacodynamics of capsaicin from either capsaicin or from Compound 1 (with or without co-administered bupivacaine or ropivacaine) administered via intraplantar infiltration to rats.
# Intraplantar infiltration dosing: Five groups of eight male Sprague Dawley rats (vendor was Charles River Laboratories) each were to receive a single subcutaneous dose of one of the following test articles: • Group 1. Compound 1, 162 μg in 0.25% bupivacaine solution (175 μL) • Group 2. Compound 1, 162 μg in 0.25% ropivacaine solution (175 μL) • Group 3. Compound 1, 162 μg in 0.125% ropivacaine solution (175 μL) • Group 4. 0.25% Ropivacaine solution (175 μL) • Group 5. Vehicle control (0.9% Saline; 175 μL)
# The injection volume was 175 μL per rat. Vehicle and test articles will be administered by wound intraplantar infiltration (150 μL) immediately prior to incision, and injection into flexor muscle prior to closure (25 μL).
# Surgery: Animals were anesthetized with 1.8 to 4% isofluorane (delivered via a nose cone). Study drug ([…]) was infiltrated (by intraplantar injection) immediately prior to incision. A 1 cm long incision of skin, fascia and muscle will be made in the plantar aspect (heel, midfoot or distal pad area) of the right hind paw starting 0.5 cm from the proximal edge of the heel and extending towards the toes. The flexor muscle was elevated and incised longitudinally via blunt dissection with the muscle origin and insertion remaining intact. After hemostasis with gentle pressure, study drug (25 μL) was injected into the flexor muscle prior to closure, and the incision was closed with one or two sutures (5-0 silk/nylon ophthalmic suture on a taper TF needle or equivalent). […]
# Guarding Behaviors: The rats were placed in Plexiglas® squares on a stainless steel wire mesh floor thirty minutes before guarding scores are to be measured for acclimation. Guarding scores were measured over 1 hour time periods for the incised paw. The animals were observed closely during a 60 second period every 5 minutes for 1 hour and scored as follows. […]
# [3] = male, Sprague-Dawley, 1.62 mg/kg
smiles,measurement,setting,value
"CN1CC2CCCCN2C1=O (centres unmarked) [Compound 2, 2-methylhexahydroimidazo[1,5-a]pyridin-3(2H)-one]","AUC0-24 of Compound 2, Mean ± SD",in vivo; [3],"24,180 ± 7,095 ng · min/mL"
same,"AUC0-24 of Compound 2, Median",in vivo; [3],"25,930 ng · min/mL"
same,"Cmax of Compound 2, Mean ± SD",in vivo; [3],175 ± 48 ng/mL
same,"Cmax of Compound 2, Median",in vivo; [3],196 ng/mL
same,"Tmax of Compound 2, Mean ± SD",in vivo; [3],36.7 ± 19.7 min
same,AUC(0-t),"in vivo; male, Sprague-Dawley, 1.62 mg/kg, AUC0-24 of Compound 2, Mean ± SD",445 ng·h/mL
same,AUC(0-t),"in vivo; male, Sprague-Dawley, 1.62 mg/kg, AUC0-24 of Compound 2, Median",450 ng·h/mL
same,Cmax,"in vivo; male, Sprague-Dawley, 1.62 mg/kg, Cmax of Compound 2, Mean ± SD",226 ± 37 ng/mL
same,Cmax,"in vivo; male, Sprague-Dawley, 1.62 mg/kg, Cmax of Compound 2, Median",226 ng/mL
"CNCC1CCCCN1C(=O)Oc1ccc(CNC(=O)CCCC/C=C/C(C)C)cc1OC.Cl (centres unmarked) [Compound 1, (E)-2-methoxy-4-((8-methylnon-6-enamido)methyl)phenyl 2-((methylamino)methyl)piperidine-1-carboxylate hydrochloride]",hydrophilicity/water solubility,[1],significantly higher
"COc1cc(CNC(=O)CCCCC=CC(C)C)ccc1O [Capsaicin, 8-methyl-N-vanillyl-6-nonenamide]",Tmax,"in vivo; male, Sprague-Dawley, 1 mg/kg, Mean ± SD",30 min
same,Tmax,"in vivo; male, Sprague-Dawley, 1 mg/kg, Median",30 min
same,"Tmax of capsaicin, Mean ± SD",in vivo; [3],50.0 ± 15.5 min
same,"Tmax of capsaicin, Median",in vivo; [3],60 min
same,Tmax,"in vivo; male, Sprague-Dawley, 1.62 mg/kg, Mean ± SD",26.7 min
same,Tmax,"in vivo; male, Sprague-Dawley, 1.62 mg/kg, Median",30 min
same,"AUC0-24 of capsaicin, Mean ± SD",in vivo; 1 mg/kg,"5,799 ± 1,759 (ng · min/mL)/(mg/kg)"
same,"AUC0-24 of capsaicin, Median",in vivo; 1 mg/kg,"5,193 (ng · min/mL)/(mg/kg)"
same,"Cmax of capsaicin, Mean ± SD",in vivo; 1 mg/kg,110 ± 41 (ng/mL)/(mg/kg)
same,"Cmax of capsaicin, Median",in vivo; 1 mg/kg,105 (ng/mL)/(mg/kg)
"CCCN1CCCC[C@H]1C(=O)Nc1c(C)cccc1C [0.25% Ropivacaine, Ropivacaine]",Guarding Score (Mean ± SEM) Day 1,"[2]; Day 1, beginning four hours post surgery, 175 μL intraplantar infiltration, Compound 1 dose 162 μg where present, incised paw, total scores 0-24",13.5 ± 1.17
same,mean guarding scores on Day 1 compared to the 0.9% saline group,"[2]; Day 1, 175 μL intraplantar infiltration, Compound 1 dose 162 μg where present, p<0.05",no significant changes
same,Guarding Score (Mean ± SEM) Predose,"[2]; Predose baseline, day prior to surgery and dosing, incised paw, total scores 0-24",1.1 ± 0.30
